{"source": "patent US20160331853A1", "about": "“COMPOSITIONS FOR RADIOTHERAPY AND USES THEREOF” (The Trustees of Columbia University in the City of New York, priority 2014, published 2016)", "key": {"NCI-28H cells [1]": {"test_system": "NCI-28H cells", "assay": "Example 21: cytotoxicity (MTS) assay, NCI-28H cells treated with doxorubicin, cisplatin, paclitaxel, talc alone, talc bound to each drug", "type": "cell-based", "conditions": "for AVERAGE reading: cells + DOX: NCI-28H, 72 hrs; for Average reading: cells + cisplatin: absorbance 490 nm; for Average reading: cells + cisplatin / % survival from untreated cells (cells + cisplatin): NCI-28H cells"}, "NCI-28H cells [2]": {"test_system": "NCI-28H cells", "assay": "Example 22: cytotoxicity (MTS) assay, NCI-28H cells treated with carboplatin, mitomycin, gemcitabine, talc alone, talc bound to each drug", "conditions": "for % survival from untreated cells: cells + drug, carboplatin / Average reading: cells + drug, carboplatin / Average absorbance reading: cells + drug, gemcitabine / % survival cells: cells + drug only: NCI-28H cells; for Average reading: cells + drug, carboplatin: absorbance 490 nm; for Average absorbance reading: cells + drug, gemcitabine: 490 nm, Table 79; for % survival cells: cells + drug only: Table 80"}, "[3]": {"assay": "Example 2: Avidin and Avidin-Rhodamine binding to talc after PBS and 0.2% EDTA washes, fluorescent microscope", "conditions": "100 mg talc; 3x PBS, 3x 0.2% EDTA washes", "procedure": "The resulting mixtures were then washed with PBS and then washed with 0.2% EDTA.\n3. Mix 1 mL of 100 μM of Avidin with 500 μL of 30.3 μM of Avidin Rhodamine (keep lights off).\n4. […] Mix well to bring the dry talc powder to evenly distributed reaction solution.\n8. Place tubes on the rotator and incubate overnight at 4° C.\n5. Continue to wash all “b” labeled tubes with 0.2% EDTA. Wash 3× in 0.5 mL EDTA.\n7. View slides under fluorescent microscope."}, "[4]": {"assay": "Example 25: non-specific binding of Biotin-Rhodamine to talc after washing with buffers of different pH, fluorescent assay 496/520 nm", "procedure": "Plan: incubate talc with Biotin Rhodamine. Make washings using different pH buffers: PBS, TBS (pH 8.0), Citrate buffer (pH 4.8). Run fluorescent assay. 1. […] Label tubes as #1, #2, #3, #4. 2. Add to each tube 500 μL 1×PBS. 3. […] 4. Mix well, incubate all tubes for 1 hr at 4° C., rotator. Protect from light. 5. […] (Centrifuge speed −3200 rpm for 3 min) 7. Add to all tubes 200 μL PBS, mix well. 8. […] 9. Run fluorescent assay using settings excitation/emission as 496 nm/520 nm."}, "[5]": {"assay": "Example 1: binding of Anti-Avidin FITC and Biotin Rhodamine to talc, fluorescence microscopy", "conditions": "30 mg talc; FITC and Rhodamine filters", "from_the_text": "This combinant nanoparticle was observed under microscopy for efficiency and efficacy. 1. […] 4. […] 5. […] 3. […] 4. […] 7. […] PBS+0.05% Tween20). 9. Analyze under microscope using FITC filter and Rhodamine filter."}, "[6]": {"assay": "Example 9: binding of bleomycin to talc, fluorescent microscopy (DAPI filter)", "conditions": "50 mg talc, 1 or 100 μg/mL bleomycin", "procedure": "1. Reconstitute bleomycin by adding 100 μL of water to 1 mg of bleomycin. Get the concentration to 10 mg/mL and mix, keeping the drug at 4° C.\n9. Incubate overnight at 4° C., constantly mixing it.\n3. Wash tubes 3× with 1 mL of water.\n4. After last wash, complete, remove the water and resuspend the pellet in Vectashield mounting medium for fluorescence.\n6. Check slides under fluorescent microscope under DAPI filter."}, "NCI-28H cells [7]": {"test_system": "NCI-28H cells", "conditions": "72 hrs"}, "[8]": {"conditions": "flow cytometry, after multiple PBS washes"}}, "note": "Values joined by “and” are separate entries in the source; they are usually repeats but may differ in a detail not shown here. Equal values may be shown once. Where a name gives a salt, the structure may show the parent alone. Read-outs that look alike come from different tables or passages of the source.", "data": [{"molecule": "COc1cccc2c1C(=O)c1c(O)c3c(c(O)c1C2=O)C[C@@](O)(C(=O)CO)C[C@@H]3O[C@H]1C[C@H](N)[C@H](O)[C@H](C)O1", "note": "[DOX, Doxorubicin Hydrochloride]", "values": [{"measurement": "AVERAGE reading: cells + DOX", "setting": "NCI-28H cells [1]; DOX 0.2 μM", "value": 0.89}, {"measurement": "AVERAGE reading: cells + DOX", "setting": "NCI-28H cells [1]; DOX 1 μM", "value": 0.67}, {"measurement": "AVERAGE reading: cells + DOX", "setting": "NCI-28H cells [1]; DOX 5 μM", "value": 0.63}]}, {"molecule": "N.N.O=C([O-])C1(C(=O)[O-])CCC1.[Pt+2]", "note": "[carboplatin]", "values": [{"measurement": "% survival from untreated cells: cells + drug, carboplatin", "setting": "NCI-28H cells [2]; carboplatin 0.006 μM", "value": "90.84% and 94.28%"}, {"measurement": "Average reading: cells + drug, carboplatin", "setting": "NCI-28H cells [2]; carboplatin 0.006 μM", "value": 1.504}, {"measurement": "% survival from untreated cells: cells + drug, carboplatin", "setting": "NCI-28H cells [2]; carboplatin 0.8 μM", "value": "85.98% and 87.53%"}, {"measurement": "Average reading: cells + drug, carboplatin", "setting": "NCI-28H cells [2]; carboplatin 0.8 μM", "value": 1.4238}, {"measurement": "% survival from untreated cells: cells + drug, carboplatin", "setting": "NCI-28H cells [2]; carboplatin 4 μM", "value": "96.93% and 93.62%"}, {"measurement": "Average reading: cells + drug, carboplatin", "setting": "NCI-28H cells [2]; carboplatin 4 μM", "value": 1.605}, {"measurement": "% survival from untreated cells: cells + drug, carboplatin", "setting": "NCI-28H cells [2]; carboplatin 20 μM", "value": "104.81% and 99.20%"}, {"measurement": "Average reading: cells + drug, carboplatin", "setting": "NCI-28H cells [2]; carboplatin 20 μM", "value": 1.7355}, {"measurement": "% survival from untreated cells: cells + drug, carboplatin", "setting": "NCI-28H cells [2]; carboplatin 100 μM", "value": "83.82% and 79.53%"}, {"measurement": "Average reading: cells + drug, carboplatin", "setting": "NCI-28H cells [2]; carboplatin 100 μM", "value": 1.388}, {"measurement": "% survival from untreated cells: cells + drug, carboplatin", "setting": "NCI-28H cells [2]; carboplatin 500 μM", "value": "37.38% and 35.14%"}, {"measurement": "Average reading: cells + drug, carboplatin", "setting": "NCI-28H cells [2]; carboplatin 500 μM", "value": 0.6189}]}, {"molecule": "N.N.[Cl][Pt][Cl]", "note": "[cisplatin, Cisplatin]", "values": [{"measurement": "Average reading: cells + cisplatin", "setting": "NCI-28H cells [1]; Cisplatin 0.0013 μM", "value": 1.37}, {"measurement": "Average reading: cells + cisplatin", "setting": "NCI-28H cells [1]; Cisplatin 0.0064 μM", "value": 1.19}, {"measurement": "Average reading: cells + cisplatin", "setting": "NCI-28H cells [1]; Cisplatin 0.8 μM", "value": 1.23}, {"measurement": "Average reading: cells + cisplatin", "setting": "NCI-28H cells [1]; Cisplatin 4 μM", "value": 1.18}, {"measurement": "Average reading: cells + cisplatin", "setting": "NCI-28H cells [1]; Cisplatin 20 μM", "value": 0.48}, {"measurement": "Average reading: cells + cisplatin", "setting": "NCI-28H cells [1]; Cisplatin 100 μM", "value": 0.59}, {"measurement": "% survival from untreated cells (cells + cisplatin)", "setting": "NCI-28H cells [1]; cisplatin 0.0013 (μM per Table 63)", "value": 91.07, "unit": "%"}, {"measurement": "% survival from untreated cells (cells + cisplatin)", "setting": "NCI-28H cells [1]; cisplatin 0.0064 (μM per Table 63)", "value": 79.21, "unit": "%"}, {"measurement": "% survival from untreated cells (cells + cisplatin)", "setting": "NCI-28H cells [1]; cisplatin 0.032 (μM per Table 63)", "value": 76.66, "unit": "%"}, {"measurement": "% survival from untreated cells (cells + cisplatin)", "setting": "NCI-28H cells [1]; cisplatin 0.16 (μM per Table 63)", "value": 79.74, "unit": "%"}, {"measurement": "% survival from untreated cells (cells + cisplatin)", "setting": "NCI-28H cells [1]; cisplatin 0.8 (μM per Table 63)", "value": 82.09, "unit": "%"}, {"measurement": "% survival from untreated cells (cells + cisplatin)", "setting": "NCI-28H cells [1]; cisplatin 4 (μM per Table 63)", "value": 78.41, "unit": "%"}, {"measurement": "% survival from untreated cells (cells + cisplatin)", "setting": "NCI-28H cells [1]; cisplatin 20 (μM per Table 63)", "value": 31.99, "unit": "%"}, {"measurement": "% survival from untreated cells (cells + cisplatin)", "setting": "NCI-28H cells [1]; cisplatin 100 (μM per Table 63)", "value": 39.35, "unit": "%"}]}, {"molecule": "Nc1ccn([C@@H]2O[C@H](CO)[C@@H](O)C2(F)F)c(=O)n1", "note": "[gemcitabine, Gemcitabine, reference compound]", "values": [{"measurement": "cytotoxicity to NCI-28H cells, conclusion", "setting": "NCI-28H cells [2]", "value": "clear cytotoxic effect"}, {"measurement": "Average absorbance reading: cells + drug, gemcitabine", "setting": "NCI-28H cells [2]; Gemcitabine 0.0026 uM", "value": 2.034}, {"measurement": "% survival cells: cells + drug only", "setting": "NCI-28H cells [2]; Gemcitabine 0.0026 uM", "value": 114.61, "unit": "%"}, {"measurement": "Average absorbance reading: cells + drug, gemcitabine", "setting": "NCI-28H cells [2]; Gemcitabine 0.013 uM", "value": 1.914}, {"measurement": "% survival cells: cells + drug only", "setting": "NCI-28H cells [2]; Gemcitabine 0.013 uM", "value": 107.85, "unit": "%"}, {"measurement": "Average absorbance reading: cells + drug, gemcitabine", "setting": "NCI-28H cells [2]; Gemcitabine 0.064 uM", "value": 1.43}, {"measurement": "% survival cells: cells + drug only", "setting": "NCI-28H cells [2]; Gemcitabine 0.064 uM", "value": 80.60, "unit": "%"}, {"measurement": "Average absorbance reading: cells + drug, gemcitabine", "setting": "NCI-28H cells [2]; Gemcitabine 8 uM", "value": 1.004}, {"measurement": "% survival cells: cells + drug only", "setting": "NCI-28H cells [2]; Gemcitabine 8 uM", "value": 56.58, "unit": "%"}, {"measurement": "Average absorbance reading: cells + drug, gemcitabine", "setting": "NCI-28H cells [2]; Gemcitabine 40 uM", "value": 1.0663}, {"measurement": "% survival cells: cells + drug only", "setting": "NCI-28H cells [2]; Gemcitabine 40 uM", "value": 60.09, "unit": "%"}, {"measurement": "Average absorbance reading: cells + drug, gemcitabine", "setting": "NCI-28H cells [2]; Gemcitabine 200 uM", "value": 0.9352}, {"measurement": "% survival cells: cells + drug only", "setting": "NCI-28H cells [2]; Gemcitabine 200 uM", "value": 52.70, "unit": "%"}]}, {"molecule": "Avidin-Rhodamine: Rhodamine Conjugated Avidin from Rockland [reference compound]", "values": [{"measurement": "binding to talc after washing", "setting": "[3]", "value": "remained bound to talc despite multiple washes"}]}, {"molecule": "Biotin Rhodamine 110", "values": [{"measurement": "effect of pH of washing buffers on binding to talc", "setting": "[4]; pH 4.8-8.0", "value": "pH does not affect the binding"}, {"measurement": "Average fluorescent signal (Rhodamine 110)", "setting": "[4]; talc/Biotin washed with Citrate buffer, pH 4.8", "value": 14027.61}, {"measurement": "Average fluorescent signal (Rhodamine 110)", "setting": "[4]; talc/Biotin washed with PBS", "value": 13760.41}, {"measurement": "Average fluorescent signal (Rhodamine 110)", "setting": "[4]; talc/Biotin washed with TBS, pH 8.0", "value": 12868.68}, {"measurement": "binding to talc, microscopy", "setting": "[5]", "value": "binding to talc"}]}, {"molecule": "Bleomycin sulfate", "values": [{"measurement": "fluorescent imaging of talc incubated with bleomycin", "setting": "[6]", "value": "no difference in fluorescent imaging between negative control and talc incubated with bleomycin"}, {"measurement": "% survival NCI-28H cells after treatment with BLEOMYCIN", "setting": "NCI-28H cells [7]; Bleomycin 0.004 ug/ml", "value": 92.41, "unit": "%"}, {"measurement": "% survival NCI-28H cells after treatment with BLEOMYCIN", "setting": "NCI-28H cells [7]; Bleomycin 0.015 ug/ml", "value": 88.25, "unit": "%"}, {"measurement": "% survival NCI-28H cells after treatment with BLEOMYCIN", "setting": "NCI-28H cells [7]; Bleomycin 0.06 ug/ml", "value": 93.38, "unit": "%"}, {"measurement": "% survival NCI-28H cells after treatment with BLEOMYCIN", "setting": "NCI-28H cells [7]; Bleomycin 0.24 ug/ml", "value": 91.86, "unit": "%"}, {"measurement": "% survival NCI-28H cells after treatment with BLEOMYCIN", "setting": "NCI-28H cells [7]; Bleomycin 0.97 ug/ml", "value": 86.19, "unit": "%"}, {"measurement": "% survival NCI-28H cells after treatment with BLEOMYCIN", "setting": "NCI-28H cells [7]; Bleomycin 3.9 ug/ml", "value": 71.05, "unit": "%"}, {"measurement": "% survival NCI-28H cells after treatment with BLEOMYCIN", "setting": "NCI-28H cells [7]; Bleomycin 15.6 ug/ml", "value": 74.60, "unit": "%"}, {"measurement": "% survival NCI-28H cells after treatment with BLEOMYCIN", "setting": "NCI-28H cells [7]; Bleomycin 62.5 ug/ml", "value": 68.76, "unit": "%"}, {"measurement": "% survival NCI-28H cells after treatment with BLEOMYCIN", "setting": "NCI-28H cells [7]; Bleomycin 250 ug/ml", "value": 47.13, "unit": "%"}, {"measurement": "% survival NCI-28H cells after treatment with BLEOMYCIN", "setting": "NCI-28H cells [7]; Bleomycin 1000 ug/ml", "value": 24.92, "unit": "%"}, {"measurement": "binding of bleomycin to talc", "setting": "[8]", "value": "binds to talc and remains on surface of talc even following multiple PBS washes"}]}]}
